Test results published in US11958846B2, “Urea compounds and compositions as SMARCA2/BRM ATPase inhibitors” (Novartis AG, priority 2018, dated 2024).

What was measured:
[1] = molecular target: Brm ATPase-SnAC (636-1331) (Homo sapiens, UniProt P51531); experiment: BRM ATPase Inhibition Assay (ADP-Glo); type: biochemical; conditions: 5 nM BRM ATPase-SnAC, 85 μM ATP, 2 nM pCMV-dR8.91 plasmid, 60 min RT
Experimental: BRM ATPase Inhibition Assay
(§1) Compound inhibition of ATPase activity of Brm ATPase-SnAC (636-1331) was measured by using the ADP-Glo assay kit from Promega (V6930). 120 nL of compound in 100% DMSO were transferred to a white 384 well microtiter assay plate using an ATS Acoustic Transfer System from EDC Biosystems. All subsequent reagent additions were performed using a MultiFlo FX Multi-Mode Dispenser. Assay buffer was 20 mM HEPES pH 7.5, 1 mM MgCl2, 20 mM KCl, 1 mM DTT, 0.01% BSA, 0.005% Tween 20. 4 μL of 7.5 nM Brm ATPase-SnAC in assay buffer was added to the assay plate and incubated at RT for 5 min with compound. 2 μL of 255 μM ATP and 6 nM pCMV-dR8.91 plasmid in assay buffer was added to assay plate to initiate the reaction. The final concentrations of reagents were 5 nM BRM ATPase-SnAC, 85 μM ATP, and 2 nM pCMV-dR8.91 plasmid. The ATPase reaction was incubated at RT for 60 min. 3 μL of ADP-Glo reagent was added to stop the reaction and was incubated for 30 min at RT. 3 μL of Kinase detection reagent was added to the assay plate which was incubated for 90 min at RT. Plates were read with a 2103 Multilabel Envision reader using ultrasensitive luminescence detection. IC50 values were determined from the average of duplicate data points by non-linear regression analysis of percent inhibition values plotted versus compound concentration.
(§2) pCMV-dR8.91 Plasmid Used for BRM/BRG1 ATPase Inhibition Assays:
(§3) The plasmid template pCMV-dR8.91 (see sequence below) is propagated using One Shot Stbl3 Chemically Competent E. coli (Catalog Number C73C7303, Invitrogen/Thermo Fisher Scientific) following the transformation protocol provided with the reagent. Transformed bacterial colonies are then selected on LB agar plates containing ampicillin/carbenicllin antibiotic selection medium (Catalog Number L1010, Teknova). Bacterial colonies are grown in LB liquid broth (Catalog number 10855001, Invitrogen) containing ampicillin at 100 micrograms/mL and plasmid DNA isolated according to required scale according to the manufacturers protocol provided with the Qiagen Plasmid Isolation Kits (Maxi prep, Product Id Number 10063).

[2] = molecular target: Brg1 ATPase-SnAC (658-1361) (Homo sapiens (Human), UniProt P51532); experiment: BRG1 ATPase Inhibition Assay (ADP-Glo); type: biochemical; conditions: 5 nM Brg1 ATPase-SnAC, 65 μM ATP, 2 nM pCMV-dR8.91 plasmid, 60 min RT
Experimental: BRG1 ATPase Inhibition Assay
BRG1 ATPase Inhibition Activity
as §1, with “Brg1” for “Brm”, “(658-1361)” for “(636-1331)”, “195” for “255”, “Brg1” for “BRM”, “65” for “85”
as §2, §3

Brm ATPase-SnAC (636-1331), sequence (P51531 whole entry, looked up): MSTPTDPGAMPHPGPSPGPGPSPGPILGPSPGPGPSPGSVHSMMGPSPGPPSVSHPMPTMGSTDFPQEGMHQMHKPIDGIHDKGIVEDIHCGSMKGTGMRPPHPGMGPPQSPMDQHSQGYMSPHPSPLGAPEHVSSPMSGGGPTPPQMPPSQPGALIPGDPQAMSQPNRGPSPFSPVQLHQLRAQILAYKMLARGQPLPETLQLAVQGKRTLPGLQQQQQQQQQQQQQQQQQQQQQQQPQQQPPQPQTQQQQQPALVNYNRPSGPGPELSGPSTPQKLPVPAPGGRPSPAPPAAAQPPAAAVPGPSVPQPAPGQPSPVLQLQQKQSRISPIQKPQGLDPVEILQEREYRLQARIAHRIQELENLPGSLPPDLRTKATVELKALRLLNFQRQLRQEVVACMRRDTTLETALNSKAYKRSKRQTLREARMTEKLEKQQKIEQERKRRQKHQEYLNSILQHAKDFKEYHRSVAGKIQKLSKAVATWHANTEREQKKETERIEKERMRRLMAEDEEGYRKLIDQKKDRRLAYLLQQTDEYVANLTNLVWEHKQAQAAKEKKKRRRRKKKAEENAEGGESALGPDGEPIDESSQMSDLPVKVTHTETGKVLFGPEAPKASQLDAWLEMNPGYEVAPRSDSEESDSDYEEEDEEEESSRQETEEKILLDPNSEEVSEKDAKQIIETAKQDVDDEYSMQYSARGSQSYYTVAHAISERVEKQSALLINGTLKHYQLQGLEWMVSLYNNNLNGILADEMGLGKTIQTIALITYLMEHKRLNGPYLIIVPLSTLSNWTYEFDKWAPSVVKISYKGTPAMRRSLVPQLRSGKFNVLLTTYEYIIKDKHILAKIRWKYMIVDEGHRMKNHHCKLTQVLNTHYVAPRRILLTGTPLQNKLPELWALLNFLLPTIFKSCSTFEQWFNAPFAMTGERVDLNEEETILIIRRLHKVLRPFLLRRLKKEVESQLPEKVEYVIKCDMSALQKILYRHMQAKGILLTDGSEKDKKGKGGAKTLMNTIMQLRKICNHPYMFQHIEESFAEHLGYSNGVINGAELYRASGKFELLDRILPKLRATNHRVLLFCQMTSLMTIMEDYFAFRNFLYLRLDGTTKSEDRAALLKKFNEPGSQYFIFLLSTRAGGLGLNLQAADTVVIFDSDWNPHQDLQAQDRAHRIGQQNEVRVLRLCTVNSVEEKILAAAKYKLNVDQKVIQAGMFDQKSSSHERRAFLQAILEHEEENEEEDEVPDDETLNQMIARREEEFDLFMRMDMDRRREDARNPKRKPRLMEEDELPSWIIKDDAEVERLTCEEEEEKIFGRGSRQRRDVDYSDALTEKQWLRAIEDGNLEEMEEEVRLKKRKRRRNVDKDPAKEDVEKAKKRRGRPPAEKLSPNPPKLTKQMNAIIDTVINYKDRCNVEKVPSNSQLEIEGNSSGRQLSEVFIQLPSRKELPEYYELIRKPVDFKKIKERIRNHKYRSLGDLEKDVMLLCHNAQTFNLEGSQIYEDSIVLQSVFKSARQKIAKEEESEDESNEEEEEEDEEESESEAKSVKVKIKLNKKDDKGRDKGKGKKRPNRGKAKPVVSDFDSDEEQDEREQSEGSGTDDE
Brg1 ATPase-SnAC (658-1361), sequence (P51532 other isoform, or with tags, fused parts or gaps): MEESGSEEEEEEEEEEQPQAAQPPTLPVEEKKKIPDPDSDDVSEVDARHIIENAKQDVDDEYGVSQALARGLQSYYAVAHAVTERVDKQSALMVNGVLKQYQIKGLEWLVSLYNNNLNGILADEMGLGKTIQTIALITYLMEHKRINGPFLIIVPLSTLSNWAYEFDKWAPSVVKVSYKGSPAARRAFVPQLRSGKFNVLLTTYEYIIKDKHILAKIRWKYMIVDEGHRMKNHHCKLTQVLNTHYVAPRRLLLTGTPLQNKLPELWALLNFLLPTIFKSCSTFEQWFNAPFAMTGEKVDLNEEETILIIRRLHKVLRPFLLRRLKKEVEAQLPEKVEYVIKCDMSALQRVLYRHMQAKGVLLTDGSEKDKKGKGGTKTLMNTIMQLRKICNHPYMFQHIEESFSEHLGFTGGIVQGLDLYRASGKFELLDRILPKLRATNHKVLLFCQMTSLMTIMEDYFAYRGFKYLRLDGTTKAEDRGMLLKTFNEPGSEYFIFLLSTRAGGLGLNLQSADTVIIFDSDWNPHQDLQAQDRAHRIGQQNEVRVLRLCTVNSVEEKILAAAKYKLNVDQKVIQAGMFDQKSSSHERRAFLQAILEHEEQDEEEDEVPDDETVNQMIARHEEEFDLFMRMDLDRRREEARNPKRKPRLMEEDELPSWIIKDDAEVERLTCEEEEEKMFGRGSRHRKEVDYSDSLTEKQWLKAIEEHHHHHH

Row | SMILES | IC50 [1] | IC50 [2]
1 | O=C(Nc1ccnc(Cl)c1)Nc1cc(C(F)F)ns1 [Example 1, 1-(2-chloropyridin-4-yl)-3-(3-(difluoromethyl)isothiazol-5-yl)urea] | 5 nM | 6 nM
2 | Nc1cnc(F)cc1NC(=O)Nc1cc(C(F)F)ns1 [Example 6, 1-(5-amino-2-fluoropyridin-4-yl)-3-(3-(difluoromethyl)isothiazol-5-yl)urea] | < 5 nM | < 5 nM
3 | Cc1cc(NC(=O)Nc2ccnc(Cl)c2)sn1 [Example 2, 1-(2-chloropyridin-4-yl)-3-(3-methylisothiazol-5-yl)urea] | 33 nM | 30 nM
4 | O=C(Nc1cc(C(F)F)ns1)Nc1cc(Cl)ncc1CO [Example 5, 1-(2-chloro-5-(hydroxymethyl)pyridin-4-yl)-3-(3-(difluoromethyl)isothiazol-5-yl)urea] | < 5 nM | < 5 nM
5 | Nc1cnc(Cl)cc1NC(=O)Nc1cc(C(F)F)ns1 [Example 4, 1-(5-amino-2-chloropyridin-4-yl)-3-(3-(difluoromethyl)isothiazol-5-yl)urea] | < 5 nM | < 5 nM
6 | O=C(Nc1cc(C(F)F)ns1)Nc1ccnc(F)c1CO [Example 8, 1-(3-(difluoromethyl)isothiazol-5-yl)-3-(2-fluoro-3-(hydroxymethyl)pyridin-4-yl)urea] | 90 nM | 19 nM
7 | O=C(Nc1cc(C(F)F)ns1)Nc1cc(F)ncc1CO [Example 7, 1-(3-(difluoromethyl)isothiazol-5-yl)-3-(2-fluoro-5-(hydroxymethyl)pyridin-4-yl)urea] | < 5 nM | < 5 nM
